Experimental data as given in patent US20100210836A1, “SMALL MOLECULE INHIBITORS OF LYMPHOID TYROSINE PHOSPHATASE” (University of Southern California, priority 2009, published 2010).
Where two headings read alike, the source gives them in different places.

Experiments:
[1] = test system: TCR-induced phosphorylation of SLP-76; assay: Phospho-flow cytometry of JTAg cells, anti-pSLP76 (Tyr128); conditions: 50 μM, 1 h, compared to control
Protocol: Phosphoflow cytometry. Phospho-flow cytometry was performed on JTAg cells following published protocols (BD Biosciences). […] Cell fluorescence was assessed on a Cytomics FC500 cytometer (Beckman Coulter) at the USC Immune Monitoring Core. Data Analysis and graph preparation were carried using FlowJo (Tree Star, Inc., Ashland, Oreg.).

[2] = test system: phosphorylation of ZAP-70; assay: Anti-pZAP (Tyr319) blot of JTAg cells; conditions: 50 μM, 1 h
Protocol: (§1) The volume of DMSO added was held constant at less than 2% of the total volume. JTAg cells pre-incubated with DMSO or inhibitor were divided into 400 μL aliquots containing 10×10^6 cells and stimulated with supernatants of C305 hybridoma (31) for 2 min or left untreated. […] The total protein concentration in each cell lysate was determined by the Bradford protein assay (Bio-Rad) in order to normalize the amount of protein used in SDS-PAGE.
(§2) Aliquots of lysates were suspended in SDS sample buffer, heated at 95° C. for 5 minutes and the boiled samples run on 10% SDS-polyacrylamide gels. Proteins resolved by gel electrophoresis were transferred onto nitrocellulose membranes (Hybond ECL, GE Healthcare), using appropriate dilutions of unconjugated primary antibodies followed by HRP-conjugated secondary antibodies (purchased from GE Healthcare). Blots were developed with the enhanced chemiluminescence detection system, ECL-Plus, following manufacturers directions.

[3] = test system: phosphorylation of Lck at Tyr394; assay: Anti-pSrc (Tyr416) immunoblot of thymocytes from PTPN22+/+ mice; conditions: 50 μM, 1 h, anti-CD3/anti-CD4 plus streptavidin
Protocol: (§3) The volume of DMSO added was held constant at less than 2% of the total volume. Thymocytes pre-incubated with DMSO or inhibitor were divided into 200 μL aliquots containing 10×10^6 cells, treated with biotinylated CD3 and CD4 antibodies for 30 min and stimulated with the crosslinker, streptavidin for 1.5 min, or left untreated.
as §2
(§4) In parallel, the compound was also tested on T cells from normal PTPN22+/+ mice.

[4] = test system: ERK1/2 phosphorylation; assay: Anti-pERK1/2 blot of JTAg cells; conditions: 50 μM, 1 h
Protocol: as §1, §2

[5] = test system: phosphorylation of Lck at Tyr394; assay: Anti-pSrc (Tyr416) immunoblot of thymocytes from PTPN22-/- mice; conditions: 50 μM, 1 h, anti-CD3/anti-CD4 plus streptavidin
Protocol: as §3, §2, §4

[6] = target: T1, HePTP (Homo sapiens, UniProt P35236); assay: biochemical
T1 sequence (P35236 65-360): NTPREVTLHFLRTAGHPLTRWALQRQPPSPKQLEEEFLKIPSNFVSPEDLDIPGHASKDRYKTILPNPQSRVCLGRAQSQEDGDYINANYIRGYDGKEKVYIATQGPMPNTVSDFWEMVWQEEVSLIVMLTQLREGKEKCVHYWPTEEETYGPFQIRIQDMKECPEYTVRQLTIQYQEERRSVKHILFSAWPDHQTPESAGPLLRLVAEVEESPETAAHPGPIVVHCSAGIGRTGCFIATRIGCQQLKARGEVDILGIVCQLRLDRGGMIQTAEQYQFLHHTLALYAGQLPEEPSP

[7] = target: T2, CD45 (Homo sapiens, UniProt P08575); assay: Counter-screen phosphatase assay CD45; format: biochemical; conditions: Table II
T2 construct: The catalytic domain of CD45 was purchased from Biomol Inc; purchased Biomol Inc
T2 sequence (P08575 653-912 limits assumed): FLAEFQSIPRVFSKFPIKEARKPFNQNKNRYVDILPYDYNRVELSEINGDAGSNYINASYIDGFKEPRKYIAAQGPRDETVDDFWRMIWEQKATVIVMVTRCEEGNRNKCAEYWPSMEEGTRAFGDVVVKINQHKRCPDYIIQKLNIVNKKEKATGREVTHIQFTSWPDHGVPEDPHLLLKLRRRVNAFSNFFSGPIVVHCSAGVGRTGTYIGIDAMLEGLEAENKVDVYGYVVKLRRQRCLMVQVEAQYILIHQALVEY
Protocol: Materials, chemicals and enzymes. All chemicals were purchased from commercial sources unless otherwise noted. Compounds were dissolved in DMSO, and stock solutions were stored at −20° C. The catalytic domain of CD45 was purchased from Biomol Inc.

[8] = target: T3, LMPTP-A (Homo sapiens, UniProt P24666); assay: biochemical
T3 sequence (P24666 1-158): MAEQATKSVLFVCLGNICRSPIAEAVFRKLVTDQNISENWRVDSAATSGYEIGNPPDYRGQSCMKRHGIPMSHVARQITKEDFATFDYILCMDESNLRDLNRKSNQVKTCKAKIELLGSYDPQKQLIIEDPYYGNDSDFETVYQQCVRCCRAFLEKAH

[9] = target: T4, LYP/PTPN22 (Homo sapiens, UniProt Q9Y2R2); assay: biochemical
T4 construct: catalytic domains of LYP (aa 2-309) and PTP-PEST (aa 2-323, PEST); 6xHis (N, cleaved yes); made in house; host or cells: E. coli BL21
T4 sequence (Q9Y2R2 2-309): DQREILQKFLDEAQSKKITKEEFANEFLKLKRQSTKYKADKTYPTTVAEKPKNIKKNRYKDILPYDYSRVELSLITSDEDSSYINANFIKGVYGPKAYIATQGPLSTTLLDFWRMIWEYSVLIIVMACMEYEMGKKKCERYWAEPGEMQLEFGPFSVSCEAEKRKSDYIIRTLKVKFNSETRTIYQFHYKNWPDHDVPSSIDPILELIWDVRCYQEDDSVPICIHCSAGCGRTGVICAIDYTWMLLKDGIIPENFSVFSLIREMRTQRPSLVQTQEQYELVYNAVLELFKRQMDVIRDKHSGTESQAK
Protocol: Chemical Library Screening for LYP Inhibitors. A library consisting of a highly diverse set of 4,000 compounds was screened in a 96-well format in an assay specific for LYP activity. […] The reaction mixture with the compounds was incubated for 25 min at 37° C. […] All assays were done in triplicate. The IC50 values were then determined for each drug from a plot of log [drug concentration] versus percentage of enzyme inhibition. Absorbance data were measured using a Molecular Devices Emax Precision Microplate reader.
Identification of Compounds as LYP Inhibitors. We initially screened a library of 4000 drug-like small-molecule compounds against LYP/PTPN22, using p-nitrophenyl phosphate (pNPP) as a substrate. The ability of the library members to inhibit LYP/PTPN22 catalyzed hydrolysis of pNPP was measured in a buffer containing 50 mM Bis-Tris pH 6.0, 1 mM DTT at 37° C.

[10] = target: T5, PTP-PEST (Homo sapiens, UniProt Q05209); assay: Counter-screen phosphatase assay PTP-PEST; format: biochemical
T5 sequence (Q05209 2-323): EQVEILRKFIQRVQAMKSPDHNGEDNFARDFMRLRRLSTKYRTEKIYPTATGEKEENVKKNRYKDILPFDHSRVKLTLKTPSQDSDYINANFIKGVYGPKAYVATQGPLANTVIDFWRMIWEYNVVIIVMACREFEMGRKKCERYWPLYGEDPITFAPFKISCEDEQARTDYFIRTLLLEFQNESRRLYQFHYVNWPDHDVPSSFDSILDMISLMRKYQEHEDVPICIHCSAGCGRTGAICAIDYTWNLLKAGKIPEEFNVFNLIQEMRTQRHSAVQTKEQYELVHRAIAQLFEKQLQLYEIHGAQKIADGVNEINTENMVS

[11] = LYP IC50, Table IV, analogues of E3P13
[12] = selectivity, ratio PEST IC50 / LYP IC50, Table IV

SMILES	IC50 [9, 11] [µM]	PEST_LYP [9, 12]	IC50 ([10]; read-out: PEST IC50) [µM]	PEST_LYP [9]	also measured
Cc1ccc2[nH]c(=O)c(C(c3nnnn3C3CCCC3)N3CCCC4(CCCCC4)C3)cc2c1 (racemic) [E3P13]					TCR-induced SLP-76 phosphorylation [1]: higher levels of TCR-induced SLP-76 phosphorylation; TCR-stimulated phosphorylation of ZAP-70 (Tyr319) [2]: increased TCR-stimulated phosphorylation of ZAP-70; Lck phosphorylation at Tyr394 [3]: increased Lck phosphorylation at Tyr394; ERK1/2 phosphorylation [4]: increased ERK1/2 phosphorylation; phosphorylation of Lck at Tyr394 [5]: no effect
O=C(CSc1nc(C2CC2)nc2sc3c(c12)CCCC3)NCc1ccc2c(c1)OCO2 [G8P15]					IC50 [6]: > 40 µM; IC50 [7]: > 90 µM; IC50 [8]: > 90 µM
Cc1ccc2[nH]c(=O)c([C@H](c3nnnn3C3CCCC3)N3CCN(c4nc5ccccc5[nH]4)CC3)cc2c1 [compound 38]	30.1	1.26	38.6		
Cc1ccc2cc(C(c3nnnn3C3CCCC3)N3CCCC4(CCCCC4)C3)c(=O)[nH]c2c1C (stereo not shown) [compound 13]			16.1	1.33	IC50 ([9]; LYP IC50): 12.1 µM
Cc1cc(C)c2cc(C(c3nnnn3C3CCCC3)N3CCCC4(CCCCC4)C3)c(=O)[nH]c2c1 (stereo not shown) [compound 10]			16	1.44	IC50 ([9]; LYP IC50): 11.1 µM
Cc1ccc2cc(C(c3nnnn3C3CCCC3)N3CCN(C(c4ccccc4)c4ccccc4)CC3)c(=O)[nH]c2c1C (stereo not shown) [compound 6]			9.8	1.07	IC50 ([9]; LYP IC50): 9.13 µM
Cc1cc(C)c2[nH]c(=O)c(C(c3nnnn3C3CCCC3)N3CCCC4(CCCCC4)C3)cc2c1 (stereo not shown) [compound 30]			31.1	1.53	IC50 ([9]; LYP IC50): 20.4 µM
Cc1cc(C)c2[nH]c(=O)c(C(c3nnnn3C3CCCC3)N3CCN(C(c4ccccc4)c4ccccc4)CC3)cc2c1 (stereo not shown) [compound 8]			9.57	0.98	IC50 ([9]; LYP IC50): 9.72 µM
Cc1cccc2cc(C(c3nnnn3C3CCCC3)N3CCCC4(CCCCC4)C3)c(=O)[nH]c12 (stereo not shown) [compound 22]			21.1	1.34	IC50 ([9]; LYP IC50): 15.8 µM
Cc1ccc2cc([C@H](c3nnnn3C3CCCC3)N3CCN(c4ccccc4)CC3)c(=O)[nH]c2c1 [compound 41]	31	~1.18	~36.5		
COc1ccc(-n2ncc3c(SCC(=O)N4c5ccccc5CC4C)ncnc32)cc1 (racemic) [B11P32]					IC50 ([10]; Table II, read-out: PTP-PEST IC50): > 40 µM; IC50 [7]: > 90 µM; IC50 [8]: > 90 µM
Cc1cc(C)c2cc([C@H](c3nnnn3C3CCCC3)N3CCC[C@@H](C)C3)c(=O)[nH]c2c1 [compound 40]	30.6	1.12	34.4		
Cc1ccc2cc(C(c3nnnn3C3CCCC3)N3CCCC4(CCCCC4)C3)c(=O)[nH]c2c1 (stereo not shown) [compound 21]			21.8	1.43	IC50 ([9]; LYP IC50): 15.2 µM
O=c1[nH]c2ccccc2cc1[C@@H](c1nnnn1C1CCCC1)N1CCc2ccccc2C1 [compound 37]	28	1.13	31.5		

Continued, in another order:

IC50 [9, 11] [µM]	PEST_LYP [9, 12]	IC50 ([10]; read-out: PEST IC50) [µM]	SMILES	PEST_LYP [9]	also measured
18.1	0.99	17.8	Cc1ccc2cc([C@H](c3nnnn3Cc3ccccc3)N3CCCC4(CCCCC4)C3)c(=O)[nH]c2c1C [compound 25]		
12.9	1.18	15.2	Cc1cc(C)c2[nH]c(=O)c([C@@H](c3nnnn3Cc3ccccc3)N3CCCC4(CCCCC4)C3)cc2c1 [compound 14]		
32.5	2.11	68.5	Cc1ccc2cc([C@@H](c3nnnn3C3CCCC3)N3CCCCC3)c(=O)[nH]c2c1 [compound 44]		
		32.5	Cc1ccc2[nH]c(=O)c([C@H](c3nnnn3C3CCCC3)N3CCN(c4ccccc4)CC3)cc2c1 [compound 47]	0.89	IC50 ([9]; LYP IC50): 36.5 µM
30.5	1.28	39	Cc1ccc2[nH]c(=O)c([C@@H](c3nnnn3C3CCCC3)N3CCc4ccccc4C3)cc2c1 [compound 39]		
13.4	0.96	12.9	CCC(C)(C)n1nnnc1[C@@H](c1cc2cccc(C)c2[nH]c1=O)N1CCCC2(CCCCC2)C1 [compound 18]		
11.1	1.36	15.1	Cc1ccc2[nH]c(=O)c([C@@H](c3nnnn3Cc3ccccc3)N3CCCC4(CCCCC4)C3)cc2c1 [compound 11]		
20.4	1.46	29.8	Cc1cccc2cc([C@H](c3nnnn3Cc3ccccc3)N3CCCC4(CCCCC4)C3)c(=O)[nH]c12 [compound 31]		
21.4	1.6	34.2	CCC(C)(C)n1nnnc1[C@@H](c1cc2ccc(C)cc2[nH]c1=O)N1CCCC2(CCCCC2)C1 [compound 34]		
13.6	2.27	30.8	Cc1cc(C)c2[nH]c(=O)c([C@H](c3nnnn3C(C)(C)C)N3CCCC4(CCCCC4)C3)cc2c1 [compound 19]		
19.7	1.33	26.1	Cc1cc(C)c2cc([C@H](c3nnnn3C(C)(C)C)N3CCCC4(CCCCC4)C3)c(=O)[nH]c2c1 [compound 28]		
22.5	1.33	29.9	CCC(C)(C)n1nnnc1[C@@H](c1cc2ccc(OC)cc2[nH]c1=O)N1CCCC2(CCCCC2)C1 [compound 35]		
		23.2	Cc1ccc2[nH]c(=O)c([C@H](c3nnnn3C3CCCC3)N3CCN(c4ccccc4F)CC3)cc2c1 [compound 36]	0.92	
10.4	1.53	15.9	CCC(C)(C)n1nnnc1[C@@H](c1cc2cc(C)ccc2[nH]c1=O)N1CCCC2(CCCCC2)C1 [compound 9]		
20.3	1.33	27.1	Cc1ccc2cc([C@H](c3nnnn3C(C)(C)C)N3CCCC4(CCCCC4)C3)c(=O)[nH]c2c1 [compound 29]		
		40.5	COc1ccc(N2CCN([C@H](c3cc4cc(C)ccc4[nH]c3=O)c3nnnn3C3CCCC3)CC2)cc1 [compound 42]	1.27	IC50 ([9]; LYP IC50): 31.7 µM
11.9	1.69	20.1	CCC(C)(C)n1nnnc1[C@@H](c1cc2cc(C)cc(C)c2[nH]c1=O)N1CCCC2(CCCCC2)C1 [compound 12]		
